Holding throughout (type): in vivo
Common to all, as to design: scale not given here

Series [1] deals with Echinochloa crus-galli. As to the kind of experiment: Paddy pot test, herbicidal effect on Echinochloa crus-galli. The following applies: Screening, 63 g/ha, applied at 1.5-leaf stage, examined after 3 weeks. The procedure:
(§1) Plastic pots having an area of 100 cm^2 and a depth of 10 cm were filled with paddy soil which is puddled by adding water, and seeds of Echinochloa crus-galli and Scirpus juncoides were planted in the pots. After seeding, rice plants at the 2.5-leaf stage were transplanted and the pots were filled with water. The rice plants were grown in a greenhouse. […] The herbicidal effects and harmful effects on the rice plants were examined after 3 weeks. Herbicidal effects were examined according to the examination criteria described below and were represented by the herbicidal index. [table] […] [formula]

For series [2], the system named is Scirpus juncoides. As to the kind of experiment: Paddy pot test, herbicidal effect on Scirpus juncoides. The following applies: Screening, 63 g/ha, examined after 3 weeks. The procedure:
as §1

Series [3] relates to rice plants. Nature of the series: Paddy pot test, harmful effects on transplanted rice plants. The note with it: Screening, 63 g/ha, applied at Echinochloa crus-galli 1.5-leaf stage, examined after 3 weeks. As for the experimental part: as §1

Take `COc1c(C(=O)c2cnn(C)c2OCc2ccc3ccccc3c2)ccc(C)c1N=S1(=O)CCCCC1` [Example 136]: in series [1], the “Echinochloa crus-galli (herbicidal index)” value is reported as 7. Besides, in series [2], the “Scripus juncoides (herbicidal index)” value worked out at 8. The “Rice (harmful effects on the rice plants, index)” value in series [3] is listed as 0.
Taken in the same sequence, the figures for `CCN(CC)CC.COc1ccc(C(=O)c2cnn(C)c2O)c(Cl)c1N=S1(=O)CCCCC1` [Example 137] were 10, 8 and 0.
Take `COc1ccc(C(=O)c2cnn(C)c2OCC(=O)c2ccccc2)c(Cl)c1N=S1(=O)CCCCC1` [Example 116]: in series [1], the “Echinochloa crus-galli (herbicidal index)” value was found to be 7. Moreover, the “Scripus juncoides (herbicidal index)” value in series [2] is 8. In addition, the “Rice (harmful effects on the rice plants, index)” value in series [3] came out at 0.
Taken in the same sequence, the figures for `COC(=O)Oc1c(C(=O)c2ccc(OC)c(N=S3(=O)CCCCC3)c2Cl)cnn1C` [Example 104] were 10, 9 and 0.
On to `COc1ccc(C(=O)c2cnn(C)c2OC(=O)SC)c(Cl)c1N=S(C)(=O)C(C)C` (stereo not drawn) [Example 211], for which, in series [1], the “Echinochloa crus-galli (herbicidal index)” value came to 6. Also, the “Scripus juncoides (herbicidal index)” value in series [2] turned out to be 8. For the same compound, in series [3], the “Rice (harmful effects on the rice plants, index)” value was 0.
On to `C=Cc1ccc(C(=O)c2cnn(C)c2O)c(Cl)c1N=S1(=O)CCCCC1` [Example 108], for which the “Echinochloa crus-galli (herbicidal index)” value in series [1] was 10. Moreover, the “Scripus juncoides (herbicidal index)” value in series [2] stood at 8. Moreover, the “Rice (harmful effects on the rice plants, index)” value in series [3] was 0.
For `COc1ccc(C(=O)c2cnn(C)c2OC(=O)SC)c(OC)c1N=S1(=O)CCCCC1` [Example 183], the “Echinochloa crus-galli (herbicidal index)” value in series [1] is listed as 7. In series [2], the “Scripus juncoides (herbicidal index)” value worked out at 6. The “Rice (harmful effects on the rice plants, index)” value in series [3] came out at 0.
For `CCCS(=O)(CCC)=Nc1c(OC)ccc(C(=O)c2cnn(C)c2OCc2ccc3ccccc3c2)c1Cl` [Example 146], in that order: 5, 6 and 0.
Taken in the same sequence, the figures for `CCS(=O)(CC)=Nc1c(C(=O)OC)ccc(C(=O)C2=C(O)CCCC2=O)c1Cl` [Example 148] were 6, 8 and 0.
For `COC(=O)c1ccc(C(=O)C(C#N)C(=O)C2CC2)c(Cl)c1N=S1(=O)CCCCC1` (stereo not drawn) [Example 165], in that order: 5, 8 and 0.
`Cc1ccc(C(=O)c2c(C)nn(C)c2OCc2ccc3ccccc3c2)c(C)c1N=S1(=O)CCCCC1` [Example 111]: the “Echinochloa crus-galli (herbicidal index)” value in series [1] was 6. For the same compound, the “Scripus juncoides (herbicidal index)” value in series [2] was 8. Moreover, the “Rice (harmful effects on the rice plants, index)” value in series [3] is 0.
For `Cc1ccc(C(=O)C2=C(O)CCCC2=O)c(C)c1N=S1(=O)CCCCC1` [Example 110], in that order: 10, 8 and 0.
For `Cn1ncc(C(=O)c2ccc(OC(F)F)c(N=S3(=O)CCCCC3)c2Cl)c1OCc1ccc2ccccc2c1` [Example 182], in that order: 10, 7 and 0.
Taken in the same sequence, the figures for `COC(=O)c1ccc(C(=O)c2cn(C(=O)SC)n(C)c2=O)c(Cl)c1N=S1(=O)CCCCC1` [Example 153] were 7, 8 and 0.
Consider `CCCS(=O)(CCC)=Nc1c(OC)ccc(C(=O)c2cnn(C)c2O)c1Cl` [Example 145], for which the “Echinochloa crus-galli (herbicidal index)” value in series [1] is recorded as 10. For the same compound, the “Scripus juncoides (herbicidal index)” value in series [2] is recorded as 8. Moreover, the “Rice (harmful effects on the rice plants, index)” value in series [3] is 0.
Taken in the same sequence, the figures for `CCc1ccc(C(=O)c2cnn(C)c2O)c(Cl)c1N=S1(=O)CCCCC1` [Example 188] were 10, 7 and 1.
Taken in the same sequence, the figures for `COC(=O)c1ccc(C(=O)c2c(C3CC3)nn(C)c2O)cc1N=S1(=O)CCCCC1` [Example 102] were 6, 6 and 0.
For `COc1ccc(C(=O)c2cnn(C)c2OCc2ccc3ccccc3c2)c(F)c1N=S1(=O)CCCCC1` [Example 113], in that order: 7, 6 and 0.
As for `COC(=O)c1ccc(C(=O)c2cnn(C)c2OC(=O)SC)c(Cl)c1N=S1(=O)CCCCC1` [Example 152], in series [1], the “Echinochloa crus-galli (herbicidal index)” value came out at 10. Further, the “Scripus juncoides (herbicidal index)” value in series [2] is listed as 8. Besides, in series [3], the “Rice (harmful effects on the rice plants, index)” value was found to be 0.
For `COC(=O)c1ccc(C(=O)c2cnn(C)c2OC(=O)SC(C)(C)C)c(Cl)c1N=S1(=O)CCCCC1` [Example 203], in that order: 10, 7 and 0.
Taken in the same sequence, the figures for `CSC(=O)Oc1c(C(=O)c2cccc(N=S3(=O)CCCCC3)c2Br)cnn1C` [Example 197] were 7, 7 and 0.
As for `C#Cc1ccc(C(=O)c2cnn(C)c2O)c(Cl)c1N=S1(=O)CCCCC1` [Example 166], the “Echinochloa crus-galli (herbicidal index)” value in series [1] is listed as 6. In series [2], the “Scripus juncoides (herbicidal index)” value stood at 8. Besides, the “Rice (harmful effects on the rice plants, index)” value in series [3] came to 0.
For `Cn1ncc(C(=O)c2ccc(CO)c(N=S3(=O)CCCCC3)c2Cl)c1O` [Example 117], in that order: 5, 8 and 0.
For `COc1ccc(C(=O)c2cnn(C)c2OCc2ccc3ccccc3c2)c(Cl)c1N=S(C)(=O)c1ccccc1` (stereo not drawn) [Example 122], in that order: 10, 6 and 0.
Taken in the same sequence, the figures for `C#Cc1ccc(C(=O)C2=C(O)CCCC2=O)c(Cl)c1N=S1(=O)CCCCC1` [Example 173] were 5, 7 and 0.
For `COc1ccc(C(=O)c2cnn(C)c2OCC(=O)c2ccc([N+](=O)[O-])cc2)c(Cl)c1N=S1(=O)CCCCC1` [Example 114], the “Echinochloa crus-galli (herbicidal index)” value in series [1] came to 10. Moreover, in series [2], the “Scripus juncoides (herbicidal index)” value is on record as 8. The “Rice (harmful effects on the rice plants, index)” value in series [3] was determined as 0.
As for `CCS(=O)(CC)=Nc1c(C)ccc(C(=O)C2=C(O)CCCC2=O)c1C` [Example 158], the “Echinochloa crus-galli (herbicidal index)” value in series [1] was 5. For the same compound, the “Scripus juncoides (herbicidal index)” value in series [2] amounted to 5. In addition, the “Rice (harmful effects on the rice plants, index)” value in series [3] amounted to 0.
Regarding `CCCS(=O)(=O)Oc1c(C(=O)c2ccc(OC)c(N=S3(=O)CCCCC3)c2Cl)cnn1C` [Example 130], the “Echinochloa crus-galli (herbicidal index)” value in series [1] came to 10. Besides, the “Scripus juncoides (herbicidal index)” value in series [2] turned out to be 8. The “Rice (harmful effects on the rice plants, index)” value in series [3] worked out at 0.
For `COc1ccc(C(=O)c2cnn(C)c2OCc2ccc3ccccc3c2)c(Cl)c1N=S1(=O)CCCC1` [Example 129], in that order: 7, 8 and 0.
Taken in the same sequence, the figures for `CCCSC(=O)Oc1c(C(=O)c2ccc(C(=O)OC)c(N=S3(=O)CCCCC3)c2Cl)cnn1C` [Example 202] were 7, 7 and 0.
With `COc1ccc(C(=O)c2cnn(C)c2O)c(Cl)c1N=S(C)(=O)c1ccccc1` (stereo not drawn) [Example 118], the “Echinochloa crus-galli (herbicidal index)” value in series [1] turned out to be 7. Also, the “Scripus juncoides (herbicidal index)” value in series [2] came out at 8. In addition, the “Rice (harmful effects on the rice plants, index)” value in series [3] was 0.
For `COc1ccc(C(=O)c2cnn(C)c2OCc2ccc3ccccc3c2)c(Cl)c1N=S(C)(C)=O` [Example 151], in that order: 6, 5 and 0.
As for `CCS(=O)(CC)=Nc1c(OC)ccc(C(=O)c2cnn(C)c2OCc2ccc3ccccc3c2)c1Cl` [Example 248], in series [1], the “Echinochloa crus-galli (herbicidal index)” value amounted to 5. For the same compound, the “Scripus juncoides (herbicidal index)” value in series [2] is recorded as 8. The “Rice (harmful effects on the rice plants, index)” value in series [3] stood at 0.
Taken in the same sequence, the figures for `COc1ccc(C(=O)c2cnn(C)c2OS(=O)(=O)c2ccc(C)cc2)c(Cl)c1N=S1(=O)CCCCC1` [Example 106] were 10, 8 and 0.
Taken in the same sequence, the figures for `COc1c(N=S2(=O)CCCCC2)cccc1C(=O)c1cnn(C)c1OCc1ccc2ccccc2c1` [Example 132] were 6, 8 and 0.
Taken in the same sequence, the figures for `COc1ccc(C(=O)c2cn(C(=O)SC)n(C)c2=O)c(Cl)c1N=S1(=O)CCCCC1` [Example 155] were 8, 8 and 0.

(Values after patent US20110144345A1, “SULFOXYIMINO-SUBSTITUTED BENZOYL DERIVATIVE AND HERBICIDE” (NIPPON SODA CO., LTD., priority 2008, published 2011).)
